Laboratory results as given in US12692221B2 (priority 2024, dated 2026).
Values after ≈ are worked out from the molar mass of the structure shown.

Experiments:
[1] = molecular target: T1, Potassium Channel hERG (human) (Homo sapiens, UniProt Q12809); test: Radioligand binding Potassium Channel hERG (human), [^3H]Dofetilide, HEK-293 cells; conditions: Potassium Channel hERG(h) ([3H] Dofetilide)
T1 construct: expressed in transfected cells; host or cells: HEK-293 cells
Protocol: (§1) Methods—Binding Assays: In vitro binding assays were performed using human recombinant receptors expressed in mammalian cell lines. Receptors were expressed in either HEK-293 or CHO cells depending on the target, and assay conditions (radioligand, concentration, nonspecific competitor, temperature, and incubation time) were optimized for each receptor. All assays were conducted in triplicate, and specific binding was quantified by scintillation counting as the detection method for each listed assay.
(§2) Specific binding was expressed as a percentage of control-specific binding, and percent inhibition was calculated using the formula in Ex. 8 above. Half-maximal inhibitory concentrations (IC50) were determined by non-linear regression analysis of the inhibition curves using the Hill equation (see Ex. 8). Inhibition constants (Ki) were calculated using the Cheng-Prusoff equation (see Ex. 8). KD values used in these calculations had been previously established for each receptor under the assay conditions (see Table 6). Data analysis was performed using software developed at Cerep and validated against SigmaPlot 4.0 for Windows.

[2] = molecular target: T2, Acetylcholinesterase (h) (Homo sapiens, UniProt P22303); test: Enzyme assay Acetylcholinesterase (h), photometry; format: biochemical
T2 construct: purchased Eurofins Discovery (contract assay)
Protocol: (§3) Methods—Enzyme and Uptake Assays: In vitro enzyme and uptake assays were conducted by Eurofins Discovery using human recombinant enzymes expressed in various mammalian and insect cell lines. Enzymatic activity was measured using appropriate substrates or tracers under conditions optimized for each target, as detailed in Table 7. Reactions were incubated at room temperature for a defined duration and terminated according to established protocols. The measured components (either enzymatic products or remaining substrate) were quantified using fluorimetry, photometry, scintillation counting, or LANCE technology, depending on the assay. Assay-specific parameters, including substrate identity, cell line source, incubation time, and detection method, are provided in Table 7.
(§4) All measurements were performed in technical replicates to ensure reproducibility and data quality.
(§5) Results were expressed both as a percentage of control-specific activity and as percent inhibition of control-specific activity. Percent activity was calculated as (measured specific activity/control specific activity)×100, and percent inhibition as 100−[(measured specific activity/control specific activity)×100], based on values obtained in the presence of test compounds. IC50 and EC50 values, along with Hill coefficients (nH), were determined by nonlinear regression analysis of inhibition or concentration-response curves generated from mean replicate values. Hill curve fitting was performed as previously described using software developed at Cerep and validated against SigmaPlot® 4.0 for Windows® (© 1997 by SPSS Inc.).

[3] = molecular target: T3, N neuronal α4β2 (h) (Homo sapiens, UniProt P17787+P43681); test: Radioligand binding N neuronal α4β2 (h) (agonist radioligand), [^3H]cytisine, SH-SY5Y cells; conditions: N neuronal alpha4beta2 (h) (agonist radioligand)
T3 construct: expressed in transfected cells; host or cells: SH-SY5Y cells
T3 sequence (P43681 29-627 limits assumed): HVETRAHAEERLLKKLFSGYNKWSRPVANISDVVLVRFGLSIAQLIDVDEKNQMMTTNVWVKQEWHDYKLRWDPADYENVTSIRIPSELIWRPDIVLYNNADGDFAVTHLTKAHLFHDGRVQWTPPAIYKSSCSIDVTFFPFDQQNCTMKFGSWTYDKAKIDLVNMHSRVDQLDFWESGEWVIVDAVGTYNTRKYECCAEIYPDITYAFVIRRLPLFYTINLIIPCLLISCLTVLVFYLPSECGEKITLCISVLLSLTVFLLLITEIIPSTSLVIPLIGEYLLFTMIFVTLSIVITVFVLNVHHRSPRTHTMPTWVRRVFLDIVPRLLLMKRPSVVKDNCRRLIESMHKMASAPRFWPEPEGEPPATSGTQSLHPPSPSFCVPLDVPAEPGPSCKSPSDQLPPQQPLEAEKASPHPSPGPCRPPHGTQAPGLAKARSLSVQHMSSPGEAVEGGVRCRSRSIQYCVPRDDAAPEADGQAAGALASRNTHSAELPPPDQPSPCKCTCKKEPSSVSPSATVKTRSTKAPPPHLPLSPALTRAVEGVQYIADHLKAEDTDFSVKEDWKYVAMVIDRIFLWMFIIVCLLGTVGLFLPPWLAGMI
T3 sequence (P17787 26-502): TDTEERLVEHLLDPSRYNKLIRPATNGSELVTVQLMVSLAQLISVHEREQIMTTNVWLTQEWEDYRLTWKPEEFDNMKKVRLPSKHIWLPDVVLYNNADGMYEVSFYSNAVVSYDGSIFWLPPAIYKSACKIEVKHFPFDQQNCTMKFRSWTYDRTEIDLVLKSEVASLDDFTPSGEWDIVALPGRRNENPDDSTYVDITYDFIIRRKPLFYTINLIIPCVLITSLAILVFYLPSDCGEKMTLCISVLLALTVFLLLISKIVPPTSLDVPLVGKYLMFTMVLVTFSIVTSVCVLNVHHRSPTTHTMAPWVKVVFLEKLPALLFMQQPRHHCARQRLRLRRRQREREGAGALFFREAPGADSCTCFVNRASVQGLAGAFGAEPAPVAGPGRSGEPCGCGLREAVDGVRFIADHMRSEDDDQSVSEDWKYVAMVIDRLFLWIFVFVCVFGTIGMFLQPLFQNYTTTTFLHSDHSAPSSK

[4] = molecular target: T4, 5-HT1A (h) (Homo sapiens, UniProt P08908); test: Radioligand binding 5-HT1A (h) (agonist radioligand), [^3H]8-OH-DPAT, HEK-293 cells
T4 construct: expressed in transfected cells; host or cells: HEK-293 cells
T4 sequence (P08908 1-422): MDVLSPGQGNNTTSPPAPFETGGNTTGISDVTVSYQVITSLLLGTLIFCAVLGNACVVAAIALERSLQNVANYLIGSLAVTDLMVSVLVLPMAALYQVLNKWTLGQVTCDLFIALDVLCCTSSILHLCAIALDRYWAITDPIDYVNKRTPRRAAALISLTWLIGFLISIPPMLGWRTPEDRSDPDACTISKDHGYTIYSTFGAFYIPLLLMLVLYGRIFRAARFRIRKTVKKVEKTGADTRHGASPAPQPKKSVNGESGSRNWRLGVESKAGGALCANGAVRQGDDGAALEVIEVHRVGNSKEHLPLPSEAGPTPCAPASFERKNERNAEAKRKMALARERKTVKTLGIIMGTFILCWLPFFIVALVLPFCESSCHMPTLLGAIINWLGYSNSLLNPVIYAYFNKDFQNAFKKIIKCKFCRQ
Protocol: as §1, §2

[5] = molecular target: 5-HT2A (Homo sapiens, UniProt P28223); test: Calcium flux agonist assay, 293T cells; format: cell-based; set-up: expressed in transfected cells; host or cells: Human Embryonic Kidney (293T) cells, transient; conditions: for Emax: HEK-293T, calcium flux, 5-HT2A, normalized to maximum 5-HT response
[6] = molecular target: T5, PDE3A(h) (Homo sapiens, UniProt Q14432); test: Enzyme assay PDE3A(h), [3H]cAMP, scintillation counting; format: biochemical
T5 construct: host or cells: Sf21 cells
Protocol: as §3, §4, §5

[7] = molecular target: T6, M3 (h) (Homo sapiens, UniProt P20309); test: Radioligand binding M3 (h) (antagonist radioligand), [^3H]4-DAMP, CHO cells
T6 construct: expressed in transfected cells; host or cells: CHO cells
T6 sequence (P20309 whole entry): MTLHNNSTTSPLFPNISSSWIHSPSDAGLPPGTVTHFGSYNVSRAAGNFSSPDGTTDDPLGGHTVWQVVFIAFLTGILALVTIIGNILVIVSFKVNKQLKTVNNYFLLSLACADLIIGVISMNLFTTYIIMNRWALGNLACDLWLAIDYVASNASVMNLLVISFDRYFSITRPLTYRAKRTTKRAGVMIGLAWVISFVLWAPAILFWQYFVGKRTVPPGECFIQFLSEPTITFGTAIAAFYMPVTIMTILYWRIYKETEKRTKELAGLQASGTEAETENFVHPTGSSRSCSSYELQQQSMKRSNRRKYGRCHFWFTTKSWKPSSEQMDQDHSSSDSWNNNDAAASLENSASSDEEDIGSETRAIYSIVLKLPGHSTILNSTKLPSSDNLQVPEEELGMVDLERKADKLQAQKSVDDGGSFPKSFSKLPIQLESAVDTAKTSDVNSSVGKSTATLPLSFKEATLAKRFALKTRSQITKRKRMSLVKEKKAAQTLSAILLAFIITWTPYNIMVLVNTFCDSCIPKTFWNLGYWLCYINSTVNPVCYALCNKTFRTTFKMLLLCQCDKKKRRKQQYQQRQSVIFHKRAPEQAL
Protocol: as §1, §2

[8] = molecular target: T7, ETA (h) (Homo sapiens, UniProt P25101); test: Radioligand binding ETA (h) (agonist radioligand), [^125I]endothelin-1, CHO cells
T7 construct: expressed in transfected cells; host or cells: CHO cells
T7 sequence (P25101 21-427): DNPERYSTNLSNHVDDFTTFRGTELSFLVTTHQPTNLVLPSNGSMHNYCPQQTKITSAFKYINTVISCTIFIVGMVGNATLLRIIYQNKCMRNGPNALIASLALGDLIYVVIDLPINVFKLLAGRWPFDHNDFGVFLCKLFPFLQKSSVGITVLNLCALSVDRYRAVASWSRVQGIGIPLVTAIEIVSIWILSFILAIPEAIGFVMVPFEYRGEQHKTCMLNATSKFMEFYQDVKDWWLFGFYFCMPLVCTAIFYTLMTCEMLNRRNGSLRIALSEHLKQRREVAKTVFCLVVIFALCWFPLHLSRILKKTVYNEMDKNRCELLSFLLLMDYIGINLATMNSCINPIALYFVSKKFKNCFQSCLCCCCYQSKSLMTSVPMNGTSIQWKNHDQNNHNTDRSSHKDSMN
Protocol: as §1, §2

[9] = molecular target: T8, H2 (h) (Homo sapiens, UniProt P25021); test: Radioligand binding H2 (h) (antagonist radioligand), [^125I]APT, CHO cells
T8 construct: expressed in transfected cells; host or cells: CHO cells
T8 sequence (P25021 whole entry): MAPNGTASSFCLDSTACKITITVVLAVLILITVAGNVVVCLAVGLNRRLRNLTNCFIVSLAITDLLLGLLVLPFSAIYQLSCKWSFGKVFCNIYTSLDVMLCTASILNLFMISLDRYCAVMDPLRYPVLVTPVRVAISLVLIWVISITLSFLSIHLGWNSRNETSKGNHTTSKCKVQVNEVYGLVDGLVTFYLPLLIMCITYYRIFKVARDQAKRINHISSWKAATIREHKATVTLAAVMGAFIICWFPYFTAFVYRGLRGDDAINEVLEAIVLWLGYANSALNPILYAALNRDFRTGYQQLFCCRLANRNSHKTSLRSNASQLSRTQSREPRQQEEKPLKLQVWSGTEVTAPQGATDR
Protocol: as §1, §2

[10] = system: Ca^2+ channel (L, dihydropyridine site); test: Radioligand binding Ca^2+ channel (L, dihydropyridine site) (antagonist radioligand), [^3H]nitrendipine, rat cerebral cortex
[11] = molecular target: T9, H1 (h) (Homo sapiens, UniProt P35367); test: Radioligand binding H1 (h) (antagonist radioligand), [^3H]pyrilamine, HEK-293 cells
T9 construct: expressed in transfected cells; host or cells: HEK-293 cells
T9 sequence (P35367 whole entry): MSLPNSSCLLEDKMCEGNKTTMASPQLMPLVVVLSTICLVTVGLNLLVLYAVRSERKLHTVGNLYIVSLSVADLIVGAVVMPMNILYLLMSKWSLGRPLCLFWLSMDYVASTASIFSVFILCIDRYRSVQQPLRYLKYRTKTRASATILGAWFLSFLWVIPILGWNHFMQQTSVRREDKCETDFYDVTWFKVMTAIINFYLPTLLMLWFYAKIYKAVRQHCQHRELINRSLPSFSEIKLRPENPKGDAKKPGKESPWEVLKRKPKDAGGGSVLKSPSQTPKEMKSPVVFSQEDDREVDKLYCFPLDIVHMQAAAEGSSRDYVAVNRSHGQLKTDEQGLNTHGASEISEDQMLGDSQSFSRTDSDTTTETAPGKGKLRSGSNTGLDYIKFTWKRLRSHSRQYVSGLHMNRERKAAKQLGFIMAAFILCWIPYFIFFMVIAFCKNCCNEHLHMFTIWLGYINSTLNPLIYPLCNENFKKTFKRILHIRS
Protocol: as §1, §2

[12] = molecular target: T10, norepinephrine transporter(h) (Homo sapiens, UniProt P23975); test: Radioligand binding NE transporter (h) (antagonist radioligand), [^3H]nisoxetine, CHO cells
T10 construct: expressed in transfected cells; host or cells: CHO cells
T10 sequence (P23975 whole entry): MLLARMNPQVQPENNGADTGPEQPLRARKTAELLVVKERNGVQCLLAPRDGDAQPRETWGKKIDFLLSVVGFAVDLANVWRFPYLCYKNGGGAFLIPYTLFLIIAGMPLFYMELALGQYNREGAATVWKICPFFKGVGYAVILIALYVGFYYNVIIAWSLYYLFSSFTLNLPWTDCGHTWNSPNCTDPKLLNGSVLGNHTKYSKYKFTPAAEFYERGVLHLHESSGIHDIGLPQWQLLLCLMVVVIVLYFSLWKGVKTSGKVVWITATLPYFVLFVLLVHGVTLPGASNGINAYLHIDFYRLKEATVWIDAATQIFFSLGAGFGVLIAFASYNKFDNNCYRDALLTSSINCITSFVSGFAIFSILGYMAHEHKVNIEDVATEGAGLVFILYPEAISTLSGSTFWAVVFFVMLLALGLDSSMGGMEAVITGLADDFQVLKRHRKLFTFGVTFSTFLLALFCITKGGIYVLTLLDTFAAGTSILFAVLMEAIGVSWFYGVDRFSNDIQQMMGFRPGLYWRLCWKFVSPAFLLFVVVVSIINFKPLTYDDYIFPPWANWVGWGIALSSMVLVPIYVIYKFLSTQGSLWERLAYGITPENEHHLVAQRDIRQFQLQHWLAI
Protocol: as §1, §2

[13] = system: KV channel; format: binding, rat; conditions: KV channel (antagonist radiolig.)
[14] = Aqueous solubility by sequential dilution in water, microscopic inspection; conditions: for aqueous solubility relative to reference compound 2C-iBu: under the same conditions; for solubility: water, thermodynamic from solid
[15] = molecular target: T11, A2A (h) (Homo sapiens, UniProt P29274); test: Radioligand binding A2A (h) (agonist radioligand), [^3H]CGS 21680, HEK-293 cells
T11 construct: expressed in transfected cells; host or cells: HEK-293 cells
T11 sequence (P29274 whole entry): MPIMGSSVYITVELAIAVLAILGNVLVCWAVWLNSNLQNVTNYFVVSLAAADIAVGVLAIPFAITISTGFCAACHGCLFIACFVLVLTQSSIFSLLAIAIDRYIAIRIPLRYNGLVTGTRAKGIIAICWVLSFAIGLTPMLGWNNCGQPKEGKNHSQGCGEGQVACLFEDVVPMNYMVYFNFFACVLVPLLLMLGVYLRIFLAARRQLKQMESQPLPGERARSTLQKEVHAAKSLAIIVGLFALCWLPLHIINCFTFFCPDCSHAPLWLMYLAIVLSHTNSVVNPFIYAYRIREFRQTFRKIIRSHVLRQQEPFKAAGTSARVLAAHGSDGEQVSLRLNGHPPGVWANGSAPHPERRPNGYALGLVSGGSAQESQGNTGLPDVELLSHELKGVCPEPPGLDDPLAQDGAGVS
Protocol: as §1, §2

[16] = system: male C57BL/6J mice; test: Motor activity / distance traveled measured in parallel with HTR; format: in vivo, mouse; conditions: i.p.; for motor activity, in words: magnetometer activity

T1 sequence (Q12809 whole entry): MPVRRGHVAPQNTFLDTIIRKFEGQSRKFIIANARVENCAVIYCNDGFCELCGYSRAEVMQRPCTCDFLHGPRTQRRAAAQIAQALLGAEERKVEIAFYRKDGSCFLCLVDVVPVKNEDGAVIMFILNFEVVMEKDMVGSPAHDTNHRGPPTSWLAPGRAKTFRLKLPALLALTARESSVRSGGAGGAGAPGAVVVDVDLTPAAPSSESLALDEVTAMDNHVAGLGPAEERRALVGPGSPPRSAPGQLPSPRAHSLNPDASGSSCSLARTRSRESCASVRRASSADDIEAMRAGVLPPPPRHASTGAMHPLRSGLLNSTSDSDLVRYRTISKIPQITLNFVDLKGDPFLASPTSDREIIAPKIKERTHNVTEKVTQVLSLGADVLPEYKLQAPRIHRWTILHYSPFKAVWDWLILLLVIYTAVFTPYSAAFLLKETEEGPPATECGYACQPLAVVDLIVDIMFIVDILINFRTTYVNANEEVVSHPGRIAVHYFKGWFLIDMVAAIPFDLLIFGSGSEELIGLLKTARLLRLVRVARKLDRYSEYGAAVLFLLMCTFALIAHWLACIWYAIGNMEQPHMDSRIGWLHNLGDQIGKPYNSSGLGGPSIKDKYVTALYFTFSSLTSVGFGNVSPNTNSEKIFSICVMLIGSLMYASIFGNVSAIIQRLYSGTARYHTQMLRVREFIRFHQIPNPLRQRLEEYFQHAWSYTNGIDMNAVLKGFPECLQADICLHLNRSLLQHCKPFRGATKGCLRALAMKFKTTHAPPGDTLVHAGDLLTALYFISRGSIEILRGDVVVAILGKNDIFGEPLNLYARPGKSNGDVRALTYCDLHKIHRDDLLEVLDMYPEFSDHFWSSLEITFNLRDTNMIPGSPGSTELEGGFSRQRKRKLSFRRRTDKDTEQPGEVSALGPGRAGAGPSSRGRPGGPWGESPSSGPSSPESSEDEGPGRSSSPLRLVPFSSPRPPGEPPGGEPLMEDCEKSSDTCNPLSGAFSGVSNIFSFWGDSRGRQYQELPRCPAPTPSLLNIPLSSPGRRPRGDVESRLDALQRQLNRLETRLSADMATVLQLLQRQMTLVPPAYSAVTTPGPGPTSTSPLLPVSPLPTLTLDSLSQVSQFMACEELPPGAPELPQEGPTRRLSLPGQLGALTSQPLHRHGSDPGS

| SMILES | Mean Percent Inhibition of Control Specific Binding [1] [%] | Mean Percent Inhibition of Control Specific Binding [2] [%] | Mean Percent Inhibition of Control Specific Binding [3] [%] | Mean Percent Inhibition of Control Specific Binding [4] [%] | EC50 [5] [nM] | Emax [5] [%] | Mean Percent Inhibition of Control Specific Binding [6] [%] | Mean Percent Inhibition of Control Specific Binding [7] [%] | Mean Percent Inhibition of Control Specific Binding [8] [%] | Mean Percent Inhibition of Control Specific Binding [9] [%] | Mean Percent Inhibition of Control Specific Binding [10] [%] | Mean Percent Inhibition of Control Specific Binding [11] [%] | Mean Percent Inhibition of Control Specific Binding [12] [%] | Mean Percent Inhibition of Control Specific Binding [13] [%] | aqueous solubility relative to reference compound 2C-iBu [14] | solubility [14] [mM] | Mean Percent Inhibition of Control Specific Binding [15] [%] | motor activity, in words [16] | further results |
| --- | --- | --- | --- | --- | --- | --- | --- | --- | --- | --- | --- | --- | --- | --- | --- | --- | --- | --- | --- |
| COCc1cc(CCN)c(O)cc1CC(C)C [2CiBu-2OH-5MM, 2-(2-aminoethyl)-5-isobutyl-4-(methoxymethyl)phenol] | 9.7 | 4.4 | −10.0 | 34.8 | 55.9 | 115 | 35.1 | 10.6 | −9.0 | 12.5 | 8.4 | 5.7 | 17.4 | 12.7 | significantly higher aqueous solubility | 110 (≈ 26.2 mg/mL) | 11.0 | – | – |
| COCCc1cc(CCN)c(OC)cc1Br [Compound 2CB-5ME, reference compound] | 8.5 | −3.2 | 7.4 | 98.2 | – | – | −4.6 | 47.9 | −3.5 | −0.6 | 0.2 | 7.3 | 11.4 | −4.3 | – | – | −21.3 | motor suppression reaching statistical significance at 30 mpk | – |
| COCc1cc(CCN)c(OC)cc1Br [Compound 2CB-5MM, 2-(4-bromo-2-methoxy-5-(methoxymethyl)phenyl)ethan-1-amine] | 13.9 | −3.5 | −0.1 | 95.1 | 0.68 | 114 | 14.5 | 29.2 | −6.5 | −14.7 | 2.7 | 7.3 | 0.2 | 0.7 | – | 43.5 (≈ 11.9 mg/mL) | 12.2 | – | Distance traveled (locomotor activity), in words ([16]; 0.03-30 mpk, over 30 minutes): remained consistent across doses |
| COCc1cc(CCN)c(OC)cc1CC(C)C [Compound 2CiBu-5MM, 2-[4-isobutyl-2-methoxy-5-(methoxymethyl)phenyl]ethanamine] | 4.4 | 8.0 | −2.6 | 76.5 | 42.2 | 111 | 8.2 | 31.8 | −1.5 | −16.5 | −4.6 | 0.6 | −5.4 | −4.2 | significantly higher aqueous solubility | 365 (≈ 91.7 mg/mL) | 1.1 | statistically significant suppression of motor activity at the two highest doses tested of 10 and 30 mpk | motor activity ID50 [16]: > 3 mpk; aqueous solubility relative to reference compound 2C-iBu ([14]; listed as Compound 8): over ten times more soluble |
